Measurements: the NIST ThermoML archive (doi:10.1021/je300692s)
± gives the expanded uncertainty stated by the source.

Assay: activity coefficient (dimensionless); of the first substance listed, at infinite dilution; xn = mol fraction of the nth substance listed
Conditions: 101 kPa, Liquid, Chromatography, x1 = 0

SMILES | activity coefficient (322.6 K) | activity coefficient (332.5 K) | activity coefficient (342.8 K) | activity coefficient (323 K) | activity coefficient (333 K) | activity coefficient (343.1 K) | activity coefficient (322.9 K)
Cc1ccccc1C [1,2-dimethylbenzene] + CCCCCCCCCC[N+]1(C)CCCC1.O=S(=O)([N-]S(=O)(=O)C(F)(F)F)C(F)(F)F | 0.92 ± 0.09 | 0.94 ± 0.1 | 0.96 ± 0.1 |  |  |  | 
Cc1ccccc1C [1,2-dimethylbenzene] + CCCCCCCC[N+]1(C)CCCC1.O=S(=O)([N-]S(=O)(=O)C(F)(F)F)C(F)(F)F |  |  |  | 0.92 ± 0.09 | 0.87 ± 0.09 | 0.97 ± 0.1 | 
Cc1ccccc1C [1,2-dimethylbenzene] + CCCCCC[N+]1(C)CCCC1.O=S(=O)([N-]S(=O)(=O)C(F)(F)F)C(F)(F)F |  |  |  |  | 1.28 ± 0.13 | 1.31 ± 0.13 | 1.17 ± 0.12
Cc1cccc(C)c1 [1,3-dimethylbenzene] + CCCCCCCCCC[N+]1(C)CCCC1.O=S(=O)([N-]S(=O)(=O)C(F)(F)F)C(F)(F)F | 0.99 ± 0.1 | 1 ± 0.1 | 1.03 ± 0.1 |  |  |  | 
Cc1cccc(C)c1 [1,3-dimethylbenzene] + CCCCCCCC[N+]1(C)CCCC1.O=S(=O)([N-]S(=O)(=O)C(F)(F)F)C(F)(F)F |  |  |  | 1 ± 0.1 | 0.84 ± 0.09 | 1.05 ± 0.11 | 
Cc1cccc(C)c1 [1,3-dimethylbenzene] + CCCCCC[N+]1(C)CCCC1.O=S(=O)([N-]S(=O)(=O)C(F)(F)F)C(F)(F)F |  |  |  |  | 1.39 ± 0.14 | 1.42 ± 0.15 | 1.28 ± 0.13
Cc1ccc(C)cc1 [1,4-dimethylbenzene] + CCCCCCCCCC[N+]1(C)CCCC1.O=S(=O)([N-]S(=O)(=O)C(F)(F)F)C(F)(F)F | 1 ± 0.1 | 1.01 ± 0.1 | 1.03 ± 0.1 |  |  |  | 
Cc1ccc(C)cc1 [1,4-dimethylbenzene] + CCCCCCCC[N+]1(C)CCCC1.O=S(=O)([N-]S(=O)(=O)C(F)(F)F)C(F)(F)F |  |  |  | 1.01 ± 0.1 | 0.99 ± 0.1 | 1.05 ± 0.11 | 
Cc1ccc(C)cc1 [1,4-dimethylbenzene] + CCCCCC[N+]1(C)CCCC1.O=S(=O)([N-]S(=O)(=O)C(F)(F)F)C(F)(F)F |  |  |  |  | 1.4 ± 0.14 | 1.42 ± 0.15 | 1.35 ± 0.14
C1COCCO1 [1,4-dioxane] + CCCCCCCCCC[N+]1(C)CCCC1.O=S(=O)([N-]S(=O)(=O)C(F)(F)F)C(F)(F)F | 0.38 ± 0.05 | 0.35 ± 0.04 | 0.38 ± 0.05 |  |  |  | 
C1COCCO1 [1,4-dioxane] + CCCCCCCC[N+]1(C)CCCC1.O=S(=O)([N-]S(=O)(=O)C(F)(F)F)C(F)(F)F |  |  |  | 0.32 ± 0.04 | 0.6 ± 0.06 | 0.31 ± 0.04 | 
C1COCCO1 [1,4-dioxane] + CCCCCC[N+]1(C)CCCC1.O=S(=O)([N-]S(=O)(=O)C(F)(F)F)C(F)(F)F |  |  |  |  | 0.42 ± 0.05 | 0.44 ± 0.05 | 0.58 ± 0.06
C#CCCCCC [1-heptyne] + CCCCCCCCCC[N+]1(C)CCCC1.O=S(=O)([N-]S(=O)(=O)C(F)(F)F)C(F)(F)F | 1.81 ± 0.19 | 1.83 ± 0.19 | 1.83 ± 0.19 |  |  |  | 
C#CCCCCC [1-heptyne] + CCCCCCCC[N+]1(C)CCCC1.O=S(=O)([N-]S(=O)(=O)C(F)(F)F)C(F)(F)F |  |  |  | 1.94 ± 0.2 | 1.89 ± 0.2 | 1.9 ± 0.2 | 
C#CCCCCC [1-heptyne] + CCCCCC[N+]1(C)CCCC1.O=S(=O)([N-]S(=O)(=O)C(F)(F)F)C(F)(F)F |  |  |  |  | 2.79 ± 0.29 | 2.78 ± 0.29 | 2.24 ± 0.24
C#CCCCC [1-hexyne] + CCCCCCCCCC[N+]1(C)CCCC1.O=S(=O)([N-]S(=O)(=O)C(F)(F)F)C(F)(F)F | 1.5 ± 0.16 | 1.48 ± 0.15 | 1.47 ± 0.15 |  |  |  | 
C#CCCCC [1-hexyne] + CCCCCCCC[N+]1(C)CCCC1.O=S(=O)([N-]S(=O)(=O)C(F)(F)F)C(F)(F)F |  |  |  | 1.57 ± 0.16 | 1.58 ± 0.16 | 1.34 ± 0.14 | 
C#CCCCC [1-hexyne] + CCCCCC[N+]1(C)CCCC1.O=S(=O)([N-]S(=O)(=O)C(F)(F)F)C(F)(F)F |  |  |  |  | 2.1 ± 0.22 | 2.09 ± 0.22 | 2.1 ± 0.22
CCC[N+](=O)[O-] [1-nitropropane] + CCCCCCCCCC[N+]1(C)CCCC1.O=S(=O)([N-]S(=O)(=O)C(F)(F)F)C(F)(F)F | 0.62 ± 0.07 | 0.61 ± 0.07 | 0.6 ± 0.06 |  |  |  | 
CCC[N+](=O)[O-] [1-nitropropane] + CCCCCCCC[N+]1(C)CCCC1.O=S(=O)([N-]S(=O)(=O)C(F)(F)F)C(F)(F)F |  |  |  | 0.55 ± 0.06 | 0.52 ± 0.06 | 0.51 ± 0.06 | 
CCC[N+](=O)[O-] [1-nitropropane] + CCCCCC[N+]1(C)CCCC1.O=S(=O)([N-]S(=O)(=O)C(F)(F)F)C(F)(F)F |  |  |  |  | 0.66 ± 0.07 | 0.65 ± 0.07 | 0.66 ± 0.07
CC(C)CO [2-methyl-1-propanol] + CCCCCCCCCC[N+]1(C)CCCC1.O=S(=O)([N-]S(=O)(=O)C(F)(F)F)C(F)(F)F | 1.7 ± 0.18 | 1.53 ± 0.16 | 1.39 ± 0.14 |  |  |  | 

SMILES | activity coefficient (322.6 K) | activity coefficient (332.5 K) | activity coefficient (342.8 K) | activity coefficient (323 K) | activity coefficient (333 K) | activity coefficient (343.1 K) | activity coefficient (322.9 K)
CC(C)CO [2-methyl-1-propanol] + CCCCCCCC[N+]1(C)CCCC1.O=S(=O)([N-]S(=O)(=O)C(F)(F)F)C(F)(F)F |  |  |  | 1.59 ± 0.17 | 1.44 ± 0.15 | 1.22 ± 0.13 | 
CC(C)CO [2-methyl-1-propanol] + CCCCCC[N+]1(C)CCCC1.O=S(=O)([N-]S(=O)(=O)C(F)(F)F)C(F)(F)F |  |  |  |  | 2.67 ± 0.16 | 1.65 ± 0.1 | 1.87 ± 0.11
CCC(C)CC [3-methylpentane] + CCCCCCCCCC[N+]1(C)CCCC1.O=S(=O)([N-]S(=O)(=O)C(F)(F)F)C(F)(F)F | 3.65 ± 0.38 | 3.36 ± 0.35 | 3.4 ± 0.36 |  |  |  | 
CCC(C)CC [3-methylpentane] + CCCCCCCC[N+]1(C)CCCC1.O=S(=O)([N-]S(=O)(=O)C(F)(F)F)C(F)(F)F |  |  |  | 4.61 ± 0.48 | 4.52 ± 0.47 | 4.08 ± 0.43 | 
CCC(C)CC [3-methylpentane] + CCCCCC[N+]1(C)CCCC1.O=S(=O)([N-]S(=O)(=O)C(F)(F)F)C(F)(F)F |  |  |  |  | 6.46 ± 0.68 | 6.37 ± 0.67 | 6.52 ± 0.69
CC#N [acetonitrile] + CCCCCCCCCC[N+]1(C)CCCC1.O=S(=O)([N-]S(=O)(=O)C(F)(F)F)C(F)(F)F | 0.49 ± 0.05 | 0.5 ± 0.06 | 0.49 ± 0.05 |  |  |  | 
CC#N [acetonitrile] + CCCCCCCC[N+]1(C)CCCC1.O=S(=O)([N-]S(=O)(=O)C(F)(F)F)C(F)(F)F |  |  |  | 0.43 ± 0.05 | 0.39 ± 0.05 | 0.37 ± 0.04 | 
CC#N [acetonitrile] + CCCCCC[N+]1(C)CCCC1.O=S(=O)([N-]S(=O)(=O)C(F)(F)F)C(F)(F)F |  |  |  |  | 0.46 ± 0.05 | 0.48 ± 0.05 | 0.46 ± 0.05
c1ccccc1 [benzene] + CCCCCCCCCC[N+]1(C)CCCC1.O=S(=O)([N-]S(=O)(=O)C(F)(F)F)C(F)(F)F | 0.62 ± 0.07 | 0.63 ± 0.07 | 0.64 ± 0.07 |  |  |  | 
c1ccccc1 [benzene] + CCCCCCCC[N+]1(C)CCCC1.O=S(=O)([N-]S(=O)(=O)C(F)(F)F)C(F)(F)F |  |  |  | 0.6 ± 0.06 | 0.62 ± 0.07 | 0.61 ± 0.07 | 
c1ccccc1 [benzene] + CCCCCC[N+]1(C)CCCC1.O=S(=O)([N-]S(=O)(=O)C(F)(F)F)C(F)(F)F |  |  |  |  | 0.77 ± 0.08 | 0.78 ± 0.08 | 0.76 ± 0.08
CCCCO [butan-1-ol] + CCCCCCCCCC[N+]1(C)CCCC1.O=S(=O)([N-]S(=O)(=O)C(F)(F)F)C(F)(F)F | 2.2 ± 0.23 | 1.85 ± 0.19 | 1.64 ± 0.17 |  |  |  | 
CCCCO [butan-1-ol] + CCCCCC[N+]1(C)CCCC1.O=S(=O)([N-]S(=O)(=O)C(F)(F)F)C(F)(F)F |  |  |  |  | 2.86 ± 0.3 | 2.04 ± 0.21 | 2.28 ± 0.24
CCC(C)=O [butanone] + CCCCCCCCCC[N+]1(C)CCCC1.O=S(=O)([N-]S(=O)(=O)C(F)(F)F)C(F)(F)F | 0.39 ± 0.05 | 0.37 ± 0.04 | 0.34 ± 0.04 |  |  |  | 
CCC(C)=O [butanone] + CCCCCCCC[N+]1(C)CCCC1.O=S(=O)([N-]S(=O)(=O)C(F)(F)F)C(F)(F)F |  |  |  | 0.36 ± 0.04 | 0.34 ± 0.04 | 0.31 ± 0.04 | 
CCC(C)=O [butanone] + CCCCCC[N+]1(C)CCCC1.O=S(=O)([N-]S(=O)(=O)C(F)(F)F)C(F)(F)F |  |  |  |  | 0.42 ± 0.05 | 0.39 ± 0.05 | 0.42 ± 0.05
C1CCCCCC1 [cycloheptane] + CCCCCCCCCC[N+]1(C)CCCC1.O=S(=O)([N-]S(=O)(=O)C(F)(F)F)C(F)(F)F | 7 ± 0.74 | 9.72 ± 1 | 13.3 ± 1.4 |  |  |  | 
C1CCCCCC1 [cycloheptane] + CCCCCCCC[N+]1(C)CCCC1.O=S(=O)([N-]S(=O)(=O)C(F)(F)F)C(F)(F)F |  |  |  | 8.62 ± 0.91 | 12.1 ± 1.3 | 15.4 ± 1.6 | 
C1CCCCCC1 [cycloheptane] + CCCCCC[N+]1(C)CCCC1.O=S(=O)([N-]S(=O)(=O)C(F)(F)F)C(F)(F)F |  |  |  |  | 19 ± 2 | 25.1 ± 2.6 | 14 ± 1.5
C1CCCCC1 [cyclohexane] + CCCCCCCCCC[N+]1(C)CCCC1.O=S(=O)([N-]S(=O)(=O)C(F)(F)F)C(F)(F)F | 2.81 ± 0.3 | 2.71 ± 0.28 | 2.62 ± 0.28 |  |  |  | 
C1CCCCC1 [cyclohexane] + CCCCCCCC[N+]1(C)CCCC1.O=S(=O)([N-]S(=O)(=O)C(F)(F)F)C(F)(F)F |  |  |  | 3.45 ± 0.36 | 3.31 ± 0.35 | 3.06 ± 0.32 | 
C1CCCCC1 [cyclohexane] + CCCCCC[N+]1(C)CCCC1.O=S(=O)([N-]S(=O)(=O)C(F)(F)F)C(F)(F)F |  |  |  |  | 4.64 ± 0.49 | 4.67 ± 0.49 | 5.16 ± 0.54
